Results: BindingDB's records for doi:10.1021/jm010066k (The University of Newcastle, 2002)
Numbered stars: 1 amine (or outer) side, 2 acyl side, 3 side chain; on linkers, the order of the positions; unused ones are H or OH. Bridge positions count the residues as written; N and C are the ends. Square brackets hold non-standard residues; d marks the D form. Peptide text beside a SMILES is read from it. Adda = CO[C@@H](Cc1ccccc1)[C@@H](C)/C=C(C)/C=C/[C@H](N[*:1])[C@H](C)C(=O)[*:2]; X1 = CC(C)C[C@H](N[*:1])C(=O)C[C@@H](C(=O)O)[C@H](C)C(=O)[*:2]; NMeDha = C=C(NC)C(=O)O

Assay: Inhibition of microcystin analogues to catalytic subunits of Serine/threonine protein phosphatase 2A (PP2Ac)

CO[C@@H](Cc1ccccc1)[C@@H](C)/C=C(C)/C=C/[C@@H]1NC(=O)[C@H](C)NC(=O)[C@@H](C)[C@H](C(=O)O)CC(=O)[C@H](CC(C)C)NC(=O)[C@@H](C)NC(=O)CN(C2CCCCC2)C(=O)CC[C@H](C(=O)O)NC(=O)[C@H]1C [7-Cyclohexyl-25-isobutyl-15-(6-methoxy-3,5-dimethyl-7-phenyl-hepta-1,3-dienyl)-3,14,18,21-tetramethyl-2,5,8,13,17,20,24-heptaoxo-1,4,7,12,16,19hexaaza-cyclopentacosane-11,22-dicarboxylic acid] and CO[C@@H](Cc1ccccc1)[C@@H](C)/C=C(C)/C=C/[C@@H]1NC(=O)[C@H](C)NC(=O)[C@@H](C)[C@H](C(=O)O)CC(=O)[C@H](CC(C)C)NC(=O)[C@@H](C)NC(=O)CN(C)C(=O)CC[C@H](C(=O)O)NC(=O)[C@H]1C [25-Isobutyl-15-(6-methoxy-3,5-dimethyl-7-phenyl-hepta-1,3-dienyl)-3,7,14,18,21-pentamethyl-2,5,8,13,17,20,24-heptaoxo-1,4,7,12,16,19hexaaza-cyclopentacosane-11,22-dicarboxylic acid] are the same in IC50: 1.5 nM for the first, 1.5 nM for the second.

Going from C=C1C(=O)N[C@H](CN)C(=O)N[C@@H](CC(C)C)C(=O)C[C@@H](C(=O)O)[C@H](C)C(=O)N[C@@H](C)C(=O)N[C@@H](/C=C/C(C)=C/[C@H](C)[C@H](Cc2ccccc2)OC)[C@H](C)C(=O)N[C@@H](C(=O)O)CCC(=O)N1C [11,22-Dicarboxy-25-isobutyl-15-(6-methoxy-3,5-dimethyl-7-phenyl-hepta-1,3-dienyl)-7,14,18,21-tetramethyl-6-methylene-2,5,8,13,17,20,24-heptaoxo-1,4,7,12,16,19hexaaza-cyclopentacos-3-ylmethyl-ammonium] to C=C1C(=O)N[C@H](C)C(=O)N[C@@H](CC(C)C)C(=O)C[C@@H](C(=O)O)[C@H](C)C(=O)N[C@@H](C)C(=O)N[C@@H](/C=C/C(C)=C/[C@H](C)[C@H](Cc2ccccc2)OC)[C@H](C)C(=O)N[C@@H](C(=O)O)CCC(=O)N1C [25-Isobutyl-15-(6-methoxy-3,5-dimethyl-7-phenyl-hepta-1,3-dienyl)-3,7,14,18,21-pentamethyl-6-methylene-2,5,8,13,17,20,24-heptaoxo-1,4,7,12,16,19hexaaza-cyclopentacosane-11,22-dicarboxylic acid] ([NMeDha][dA][X1]A[Adda][dE]-OH; lactam N-6), the IC50 falls from 9 nM to 0.3 nM (30-fold).

C=C1C(=O)N[C@H](C)C(=O)N[C@@H](CC2CCCCC2)C(=O)C[C@@H](C(=O)O)[C@H](C)C(=O)N[C@@H](C)C(=O)N[C@@H](/C=C/C(C)=C/[C@H](C)[C@H](Cc2ccccc2)OC)[C@H](C)C(=O)N[C@@H](C(=O)O)CCC(=O)N1C [25-Cyclohexylmethyl-15-(6-methoxy-3,5-dimethyl-7-phenyl-hepta-1,3-dienyl)-3,7,14,18,21-pentamethyl-6-methylene-2,5,8,13,17,20,24-heptaoxo-1,4,7,12,16,19hexaaza-cyclopentacosane-11,22-dicarboxylic acid] showed an IC50 of 3.4 nM.
